{
  "source": "patent US7214663B2",
  "about": "“Tripeptide prodrug compounds” (Medarex, Inc., priority 2001, dated 2007)",
  "key": {"[1]": {"tested_on": "purified Porcine Kidney CD10", "experiment": "Hydrolysis by purified CD10", "format": "biochemical", "description": "Reaction products were analyzed by HPLC with fluorescence detection. Rates were essentially linear over the incubation period. The observed product was Leu-doxorubicin."}, "[2]": {"tested_on": "HeLa cell anion exchange fraction (F1), trouase", "experiment": "Relative cleavage by HeLa cell anion exchange fraction (F1) versus Suc-βAla-Leu-Ala-Leu standard", "format": "biochemical, human", "description": "Thirty billion commercially produced HeLa Cells (human cervical carcinoma, Computer Cell Culture Ceizter, Seneffe, Belgium) were homogenized with a sonicator and with a Dounce homogenizer in 108 mL of aqueous lysis solution. The lysis solution contained 0.02% w/v Triton X-100, 0.04% w/v sodium azide, and a cocktail of protease inhibitors (2 tablets/50 mL Complete™, EDTA-free tablets, Roche Molecular Biochemicals). The cell homogenate was centrifuged 30 minutes at 4° C. at 5000×g and the pellet was homogenized in a second 108 mL of lysis solution using a Dounce homogenizer and centrifuged as before. The supernatants were combined and centrifuged for 90 min at 145,000×g at 4° C.\nA portion of the ultracentrifugation supernatant was diluted 2-fold with a 20 mM triethanolamine-HCl pH 7.2 buffer containing 0.01% (w/v) Triton X-100 and 0.02% (w/v) sodium azide (equilibration buffer). Thirty mL of the resulting solution, corresponding to approximately 180 mg of protein, was loaded at 4° C. on a 2.6×9.4 cm Source™ 15Q (Amersham Pharmacia Biotech) low pressure anion exchange chromatography column (1 ml/minute). The column was then washed with 250 ml of the equilibration buffer at a flow rate of 1 mL/minute. Proteins were eluted in a NaCl linear concentration gradient (0–0.5 M in the equilibration buffer, total volume of the gradient was 1000 ml) at a flow rate of 3 ml/minute. Two-minute fractions were collected and used for enzyme activity determination using βAla-Leu-Ala-Leu-Dox as the substrate. Its transformation into Ala-Leu-Dox was quantified by reverse phase high performance liquid chromatography utilizing fluorescence detection of the anthracycline moiety. The fractions containing the highest activity levels were pooled (fractions #43–46; ˜0.13 M NaCl), supplemented with protease inhibitors (Complete™, EDTA-free tablets, Roche Molecular Biochemicals), and stored as aliquots at −80° C.\nTest compounds were incubated for 2 hr at 37° C. at a concentration of 12.5 μg/mL with HeLa cell anion exchange fraction (F1), as prepared in Example 1(c). Following incubation, three volumes of acetonitrile were added to stop the reaction and remove protein from the mixture. The sample was centrifuged at 18,000 g for 5 minutes and 100 μL of supernatant was mixed with 300 μL of water prior to analysis by HPLC. For HPLC analysis 50 μL of sample was injected on a 4.6×50 mm 2μ TSK Super-ODS chromatography column at 40° C. and eluted with a 3 minute linear gradient from 26% to 68% acetonitrile in aqueous 20 mM ammonium acetate pH 4.5 buffer at 2 mL/min. Detection was by fluorescence using an excitation wavelength of 235 nm and an emission wavelength of 560 nm.\nthe amount of cleavage of each test compound was compared to the amount of a standard Suc-βAla-Leu-Ala-Leu-therapeutic agent conjugate cleaved by F1 under the same conditions. The therapeutic agent in the standard (Dox or Dnr) was the same as in the test compound. Table 3 provides the relative cleavage rates of several tripeptide prodrugs."}, "Namalwa cells (CD10pos)": {"tested_on": "Namalwa cells (CD10pos)", "experiment": "cells", "format": "cell-based, human", "conditions": "24 hours, 3H-thymidine", "description": "In addition to LNCaP, a number of B-cell lines, such as Ramos and Namalwa cells express CD10 (CD10^pos cells).\nSuspension cells, BALL-1, Ramos and Namalwa cells were cultured in RPMI media containing 10% heat inactivated fetal calf serum (FCS). On the day of the study, the cells were collected, washed and resuspended at a concentration of 0.5×10^6 cells/ml in RPMI containing 10% FCS. 100 μl of cell suspension was added to 96 well plates. […] Finally 10 μl of a 100 μCi/ml ^3H-thymidine was added per well and the plates were incubated for 24 hours. The plates were harvested using a 96 well Harvester (Packard Instruments) and counted on a Packard Top Count counter. Four parameter logistic curves were fitted to the ^3H-thymidine incorporation as a function of drug molarity using Prism software to determine IC50 values."}, "normal ICR mice": {"tested_on": "normal ICR mice", "experiment": "Single dose Maximum Tolerated Dose (SD-MTD) study, 49 days, ICR mice (Examples 5 and 6)", "description": "In a second single dose Maximum Tolerated Dose (SD-MTD) study, groups of five normal ICR mice were administered intravenous bolus doses of Suc-Leu-Ala-Leu-Dox. The mice were observed daily for 49 days and body weights measured twice weekly.\nIn a second single dose Maximum Tolerated Dose (SD-MTD) study, groups of five normal ICR mice were administered intravenous bolus doses of Suc-Leu-Ala-Gly-Dox. The mice were observed daily for 49 days and body weights measured twice weekly."}},
  "data": [
    {"smiles": "COc1cccc2c1C(=O)c1c(O)c3c(c(O)c1C2=O)C[C@@](O)(C(=O)CO)C[C@@H]3O[C@H]1C[C@H](NC(=O)[C@H](CC(C)C)NC(=O)[C@H](C)NC(=O)[C@H](CC(C)C)NC(=O)CCC(=O)O)[C@H](O)[C@H](C)O1", "note": "[Suc-Leu-Ala-Leu-Dox]", "values": [
      {"measurement": "% hydrolysis/10 hr", "setting": "[1]; 12.5 μg/mL, 37° C., pH 7.4, up to 10 hr", "result": 8.3, "unit": "%"},
      {"measurement": "Fraction hydrolyzed relative to standard", "setting": "[1]; standard Suc-βAla-Leu-Ala-Leu-Dox", "result": 0.75},
      {"measurement": "Relative Cleavage %", "setting": "[2]; 2 hr at 37° C., 12.5 μg/mL, HeLa F1, relative to Suc-βAla-Leu-Ala-Leu-(Dox or Dnr) standard", "result": 62, "unit": "%"},
      {"measurement": "Relative Rate of Cleavage", "setting": "[2]; relative to Suc-βAla-Leu-Ala-Leu-Dox = 100 (Tables 11 and 12)", "result": 62},
      {"measurement": "IC50", "setting": "Namalwa cells (CD10pos)", "result": 2270, "unit": "nM"},
      {"measurement": "acute toxicity, within 24 hours", "setting": "normal ICR mice; any dose level", "result": "no acute toxicity"},
      {"measurement": "SD-MTD (mg/kg Dox =)", "setting": "normal ICR mice; doxorubicin equivalent, intravenous bolus, ICR mice, Day 49", "result": 42, "unit": "mg/kg Dox ="},
      {"measurement": "dose groups with toxicity (partial hind-end paralysis, body weight loss >20%)", "setting": "normal ICR mice; single intravenous bolus, 49 days", "result": "≥ 94", "unit": "mg/kg"}
    ]}
  ]
}
